PMC11335209, “Aqp4a and Trpv4 mediate regulatory cell volume increase for swimming maintenance of marine fish spermatozoa” (Cellular and Molecular Life Sciences: CMLS, 2024)
Values belong to the compound of their own block, whether it stands above or below them.

Assays:
Assay type in all cases: cell-based
Trpv4_v1 = biological target: T1, Trpv4_v1 (Sparus aurata, UniProt A0A671Y4W2); assay: two-electrode voltage clamp in Xenopus oocytes, constitutive current at -85 mV
T1 construct: gene trpv4; full-length cDNA from testis in pT7Ts; cRNA expressed alone in Xenopus laevis oocytes; calculated monomer 99 kDa
T1 sequence (A0A671Y4W2 1-876): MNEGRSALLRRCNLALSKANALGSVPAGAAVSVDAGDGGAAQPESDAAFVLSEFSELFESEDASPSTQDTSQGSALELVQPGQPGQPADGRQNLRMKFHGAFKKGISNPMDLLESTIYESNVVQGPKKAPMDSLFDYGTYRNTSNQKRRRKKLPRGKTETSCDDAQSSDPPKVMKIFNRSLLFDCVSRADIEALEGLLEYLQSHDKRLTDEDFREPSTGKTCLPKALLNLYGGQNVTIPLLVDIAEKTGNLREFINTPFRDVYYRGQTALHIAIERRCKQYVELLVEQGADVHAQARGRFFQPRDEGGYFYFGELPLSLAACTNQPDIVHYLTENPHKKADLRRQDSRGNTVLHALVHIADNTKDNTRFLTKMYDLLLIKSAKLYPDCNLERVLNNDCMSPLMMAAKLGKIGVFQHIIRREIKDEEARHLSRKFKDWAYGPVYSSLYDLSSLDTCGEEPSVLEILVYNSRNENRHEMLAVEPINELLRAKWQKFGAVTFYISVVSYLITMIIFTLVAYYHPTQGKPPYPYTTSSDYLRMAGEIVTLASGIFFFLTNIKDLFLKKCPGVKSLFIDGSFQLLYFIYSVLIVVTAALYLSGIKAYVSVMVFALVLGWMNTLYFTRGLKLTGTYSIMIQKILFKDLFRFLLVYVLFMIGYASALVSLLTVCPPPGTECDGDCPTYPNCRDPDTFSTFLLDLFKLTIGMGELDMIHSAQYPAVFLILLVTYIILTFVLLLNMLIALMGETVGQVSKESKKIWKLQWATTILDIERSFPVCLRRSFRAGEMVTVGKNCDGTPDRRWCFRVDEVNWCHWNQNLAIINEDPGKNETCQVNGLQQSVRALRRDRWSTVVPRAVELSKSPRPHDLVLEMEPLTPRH

Trpv4_v10 = biological target: T2, Trpv4_v10 (Sparus aurata, UniProt A0A671Y517); assay: as above
T2 construct: gene trpv4; synthesized full-length splice-variant cDNA in pT7Ts; cRNA expressed alone in Xenopus laevis oocytes; divergent N-terminus
T2 sequence (A0A671Y517 1-877): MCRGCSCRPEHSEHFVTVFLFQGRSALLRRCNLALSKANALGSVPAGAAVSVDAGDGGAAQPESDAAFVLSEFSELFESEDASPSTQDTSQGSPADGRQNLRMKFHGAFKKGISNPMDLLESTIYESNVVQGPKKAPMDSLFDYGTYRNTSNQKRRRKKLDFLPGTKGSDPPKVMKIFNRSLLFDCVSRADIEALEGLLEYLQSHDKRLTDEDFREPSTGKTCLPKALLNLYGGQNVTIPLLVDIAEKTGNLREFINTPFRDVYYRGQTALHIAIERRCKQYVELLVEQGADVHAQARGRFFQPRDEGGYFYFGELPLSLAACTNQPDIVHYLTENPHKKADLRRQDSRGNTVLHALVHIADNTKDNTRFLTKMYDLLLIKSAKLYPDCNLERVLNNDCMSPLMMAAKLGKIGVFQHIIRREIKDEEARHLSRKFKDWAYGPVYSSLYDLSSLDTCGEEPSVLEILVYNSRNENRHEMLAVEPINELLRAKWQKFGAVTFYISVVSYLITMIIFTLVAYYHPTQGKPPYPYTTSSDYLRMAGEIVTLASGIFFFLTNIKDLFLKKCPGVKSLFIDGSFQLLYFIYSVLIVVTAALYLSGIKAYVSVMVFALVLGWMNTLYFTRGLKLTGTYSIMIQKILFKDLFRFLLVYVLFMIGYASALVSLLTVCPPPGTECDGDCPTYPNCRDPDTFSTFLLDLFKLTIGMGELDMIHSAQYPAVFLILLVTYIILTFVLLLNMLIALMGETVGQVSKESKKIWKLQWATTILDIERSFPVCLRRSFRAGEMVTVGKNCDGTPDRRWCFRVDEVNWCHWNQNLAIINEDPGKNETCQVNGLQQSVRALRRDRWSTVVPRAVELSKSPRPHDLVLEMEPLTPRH

Aqp4a-M43 = biological target: T3, Aqp4a-M43 (Sparus aurata, UniProt A0A678R2D9); assay: oocyte swelling assay (osmotic water permeability Lp); conditions: 5 min pretreatment, hyposmotic challenge -100 mOsm, pH 7.4
T3 construct: gene Aqp4; short isoform starting at Met-43, 31 kDa; cRNA expressed in Xenopus laevis oocytes

[1] = 5 min exposure, isosmotic 220 mOsm, pH 7.4, room temperature

T3 sequence (A0A678R2D9 entry or part of it): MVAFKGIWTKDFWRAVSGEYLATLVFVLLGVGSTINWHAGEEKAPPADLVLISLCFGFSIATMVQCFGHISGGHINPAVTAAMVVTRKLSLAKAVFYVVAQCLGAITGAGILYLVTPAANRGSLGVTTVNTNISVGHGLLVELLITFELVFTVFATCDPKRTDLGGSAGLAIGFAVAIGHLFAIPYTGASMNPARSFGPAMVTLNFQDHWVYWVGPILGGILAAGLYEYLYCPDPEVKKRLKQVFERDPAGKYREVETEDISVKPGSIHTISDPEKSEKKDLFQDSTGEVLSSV

SMILES: Cc1c(C(=O)Nc2cccc(C(F)(F)F)c2)cc(-c2ccccc2)n1CCCN1CCOCC1 [HC-067047]
inhibition at 10 µM (Trpv4_v1): ~8%
inhibition at 10 µM (Trpv4_v10): ~8%

inhibition at 100 µM (Trpv4_v1): ~40%
inhibition at 100 µM (Trpv4_v10): ~9%
SMILES: CC(C)NCCN(C(C)C)S(=O)(=O)c1ccc(Cl)cc1Cl [RN-1734]

% reduction of Lp at 20 μM (Aqp4a-M43): ~ 82%
SMILES: O=C(Nc1nncs1)c1cccnc1 [TGN-020, 2-(Nicotinamide)-1,3,4-thiadiazole]

SMILES: N.N.N.N.N.N.N.N.N.N.N.N.N.N.[Cl-].[Cl-].[Cl-].[Cl-].[Cl-].[Cl-].[O-2].[O-2].[Ru+3].[Ru+3].[Ru+4] [ruthenium red]
% inhibition at 10 μM (Trpv4_v1; [1]): ~ 28%
% inhibition at 10 μM (Trpv4_v10; [1]): ~ 5%
